The values that follow come from patent publication US12338238B2, “Inhibitors of SARM1” (Disarm Therapeutics, Inc., priority 2018, dated 2025).

The IC50 is the midpoint of a concentration-inhibition curve.

The first test deals with mouse dorsal root ganglion (DRG) axons. Description: Axon degeneration assay in mouse DRG drop culture. Format: cell-based. The note with it: protection of axon fragmentation, axonal transection or chemotoxic stimuli. The protocol:
This Example illustrates an in vitro axon degeneration assay used to characterize compounds of Formula I. This assay is used to test the efficacy of the compounds of Formula I to prevent axonal degeneration in a mouse dorsal root ganglion (DRG) drop culture.
Mouse dorsal root ganglion neurons (DRGs) were dissected out of E12.5 CD1 mice (50 ganglion per embryo) and incubated with 0.5% Trypsin solution containing 0.02% EDTA (Gibco) at 37° C. for 15 min. The cells were then triturated by gentle pipetting and washed 3 times with DRG growth medium (Neurobasal medium (Gibco) containing 2% B27 (Invitrogen), 100 ng/ml 2.5S NGF (Harland Bioproducts), […] 5-fluoro-2′deoxyuridine (Sigma), penicillin, and streptomycin). Cells were suspended in the DRG growth medium. DRG drop cultures were created by spotting 5000 cells/well into the center of each well of a 96-well tissue culture plate coated with poly-D-Lysine (0.1 mg/ml; Sigma) and laminin ([…]; Invitrogen). Cells were allowed to adhere to the plates in a humidified tissue culture incubator (5% CO2) for 15 min and then DRG growth medium was gently added ([…]).
Axonal degeneration was stimulated either by manual axonal transection using a scalpel blade, or chemotoxic stimuli. After an appropriate experimental time period, the DRG cultures were fixed in 1% PFA plus sucrose and kept in the fridge prior to imaging. Bright-field images of DRG axons and cell bodies were collected using the 20x water immersion lens of a Phenix automated confocal microscope (PerkinElmer) and quantitation of axonal performed using in-house developed scripts (Acapella, PerkinElmer).
For the compound `Brc1cccc2cnccc12` [Example 8], the IC50 is < 10 µM. For the compound `Ic1cccc2cnccc12` [Example 26], the IC50 was < 10 µM. Still for that read-out and setting: as for `Clc1cccc2cnccc12` [Example 42], the figure is 10 to 30 µM.

In a further test the target is SARM1 SAM-TIR (Homo sapiens (Human), UniProt Q6SZW1). Description: biochemical. Format: biochemical. The note with it: SAM-TIR lysate 5 μg/mL, 2 hr pre-incubation, 5 μM NAD+, RapidFire MS.
SARM1 SAM-TIR, sequence (Q6SZW1 409-724): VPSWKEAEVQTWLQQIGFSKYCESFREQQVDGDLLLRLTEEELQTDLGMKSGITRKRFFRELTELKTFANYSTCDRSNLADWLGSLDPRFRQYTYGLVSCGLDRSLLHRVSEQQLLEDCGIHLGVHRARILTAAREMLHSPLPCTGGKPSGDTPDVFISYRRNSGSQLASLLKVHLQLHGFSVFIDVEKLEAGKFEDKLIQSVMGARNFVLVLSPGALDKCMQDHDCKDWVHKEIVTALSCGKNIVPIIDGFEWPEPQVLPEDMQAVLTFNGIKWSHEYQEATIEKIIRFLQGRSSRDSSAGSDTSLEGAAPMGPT
`Brc1cncc2ccccc12` [Example 2]: the IC50 fell in the range of 15 to 30 µM. Turning to `O=c1[nH]cc(I)c2ccncc12` [Example 3], the IC50 is < 5 µM.

On to `O=c1[nH]cc(Br)c2ccncc12` [Example 4], for which the concentration for half-maximal inhibition (IC50) is < 5 µM. As to `O=c1[nH]ccc2ccncc12` [Example 5], the 50% inhibitory concentration (IC50) is < 5 µM.

Regarding `O=c1[nH]ncc2ccc(F)cc12` [Example 7], the IC50 was > 30 µM.

Take `Brc1cccc2cnccc12` [Example 8]: the IC50 is < 5 µM.

Compound `Nc1ccc2cnccc2c1Cl` [Example 9] yielded an IC50 of 15 to 30 µM. In the case of `Brc1cccc2cnncc12` [Example 10], the IC50 is < 5 µM. On to `Oc1cccc2ccncc12` [Example 11], for which the half-maximal inhibitory concentration (IC50) was < 5 µM. Same read-out and setting: as for `Nc1ccc(Br)c2ccncc12` [Example 12], the figure is < 5 µM; as for `Cc1cncc2cccc(Br)c12` [Example 13], 5 to 15 µM; as for `Oc1cc2c(Br)cccc2cn1` [Example 14], > 30 µM. For the compound `COc1ccc(Br)c2ccncc12` [Example 15], the IC50 is < 5 µM.

Regarding `Brc1ccc2cnncc2c1` [Example 16], the IC50 was > 30 µM. The same measure, in the same setting: for `Cc1cncc2ccccc12` [Example 17] the value was 5 to 15 µM; for `Nc1nccc2c(I)cccc12` [Example 18], < 5 µM; for `c1cc(C2CC2)c2ccncc2c1` [Example 19], 5 to 15 µM.

Compound `CCn1cc(Br)c2ccncc2c1=O` [Example 20] had a 50% inhibitory concentration (IC50) of 5 to 15 µM. `COc1ncc(Br)c2ccncc12` [Example 21] had an IC50 of 5 to 15 µM. Same read-out and setting: as for `CC(C)c1c[nH]c(=O)c2cnccc12` [Example 22], the figure is 5 to 15 µM; as for `CN(C)c1nccc2c(Br)cccc12` [Example 23], > 30 µM; as for `COc1ncc(C2CC2)c2ccncc12` [Example 24], > 30 µM.

Turning to `CC(C)Oc1cccc2cnccc12` [Example 25], the IC50 is > 30 µM.

For `CNc1nccc2c(Br)cccc12` [Example 27], the IC50 is > 30 µM.

In the case of `COc1c[nH]c(=O)c2cnccc12` [Example 28], the IC50 is > 30 µM. Turning to `O=c1cc(Br)c2ccncc2[nH]1` [Example 29], the IC50 is < 5 µM. With `Fc1cc(Cl)c2ccncc2c1` [Example 30], the IC50 was < 5 µM. For the compound `Nc1ccc(Cl)c2ccncc12` [Example 32], the IC50 was < 5 µM. `O=c1[nH]ccc2c(Br)cccc12` [Example 33] yielded an IC50 of 5 to 15 µM. Still for that read-out and setting: for `Clc1ccc(Br)c2cnccc12` [Example 34] the value was 15 to 30 µM; for `Nc1cccc2cncc(Br)c12` [Example 35], 15 to 30 µM. Regarding `c1cc2ccncc2cn1` [Example 36], the IC50 lay in the range of 15 to 30 µM. Take `Nc1cccc2cnncc12` [Example 37]: the IC50 lay in the range of 15 to 30 µM. As for `Nc1nccc2ccncc12` [Example 38], the IC50 is > 30 µM.

Turning to `O=c1[nH]ccc2ccc(O)cc12` [Example 39], the IC50 was > 30 µM.

As for `COc1cc2cc[nH]c(=O)c2cc1F` [Example 40], the IC50 was > 30 µM. With `Clc1ccnc2cnccc12` [Example 41], the IC50 is < 5 µM. In the case of `Clc1cccc2cnccc12` [Example 42], the IC50 was < 5 µM. In the case of `c1ccc2nnccc2c1` [Example 43], the IC50 is < 5 µM. For the compound `Oc1cccc2cnccc12` [Example 44], the IC50 is < 5 µM. `OCc1cccc2cnccc12` [Example 45]: the IC50 is < 5 µM.

As to `Nc1ncc(Br)c2ccncc12` [Example 46], the IC50 was < 5 µM. Take `O=[N+]([O-])c1cccc2cnccc12` [Example 47]: the 50% inhibitory concentration (IC50) lay in the range of 5 to 15 µM. Still for that read-out and setting: for `c1ccc2cnccc2c1` [Example 48] the value was 5 to 15 µM; for `COc1cccc2cnccc12` [Example 49], 5 to 15 µM. For `NCc1cccc2cnccc12` [Example 50], the IC50 was 15 to 30 µM.

In the case of `COC(=O)c1cccc2cnccc12` [Example 51], the IC50 is > 30 µM. Turning to `Nc1cccc2c(Br)cncc12` [Example 52], the IC50 is > 30 µM.

As for `Cc1nccc2c(Br)cccc12` [Example 53], the IC50 is > 30 µM. The compound `O=C(O)c1ccnc2cnccc12` [Example 54] registered an IC50 of 15 to 30 µM.

Consider `Nc1nccc2c(Br)cccc12` [Example 55], for which the IC50 is < 5 µM.

`COc1cccc2ccncc12` [Example 56]: the IC50 is < 5 µM. `Clc1ccc(Cl)c2cnccc12` [Example 57]: the IC50 lay within 5 to 15 µM. Turning to `Cc1cc2c(N)cccc2cn1` [Example 58], the IC50 lay within 5 to 15 µM. Turning to `Oc1cncc2ccccc12` [Example 59], the IC50 is 15 to 30 µM. With `Brc1cccc2cncnc12` [Example 60], the IC50 was > 30 µM.

Take `FC(F)(F)c1cccc2cnccc12` [Example 61]: the IC50 was > 30 µM. With `Nc1ccc(O)c2cnccc12` [Example 62], the IC50 is < 5 µM.

Consider `Nc1cncc2ccccc12` [Example 63], for which the IC50 fell in the range of 5 to 15 µM.

In the case of `Ic1cccc2cnncc12` [Example 64], the IC50 was < 5 µM.

In the case of `Oc1ccc(Br)c2ccncc12` [Example 65], the IC50 was < 5 µM. Take `Cn1cc(Br)c2ccncc2c1=O` [Example 66]: the 50% inhibitory concentration (IC50) was < 5 µM. Turning to `Brc1ccnc2cnccc12` [Example 67], the IC50 is < 5 µM.

As for `CNc1ncc(Br)c2ccncc12` [Example 68], the IC50 was < 5 µM. For `COc1cc(Br)c2ccncc2n1` [Example 69], the IC50 was < 5 µM. As to `Brc1cncc2cnccc12` [Example 70], the concentration for half-maximal inhibition (IC50) is < 5 µM. For the compound `Nc1ccnc2cnccc12` [Example 71], the IC50 is 5 to 15 µM.

On to `CNC(=O)Nc1ncc(Br)c2ccncc12` [Example 72], for which the half-inhibitory concentration (IC50) was 5 to 15 µM. On the same count and under the same terms, as for `COc1cccc2cnncc12` [Example 73], the figure is 5 to 15 µM; as for `CSc1cccc2cnccc12` [Example 74], 5 to 15 µM; as for `Nc1c[nH]c(=O)c2cnccc12` [Example 75], 15 to 30 µM. In turn, `Cc1nccc2c(Br)c[nH]c(=O)c12` [Example 76] came in with an IC50 of 15 to 30 µM.

With `O=S(=O)(Nc1nccc2c(Br)cccc12)C1CC1` [Example 77], the IC50 fell in the range of 15 to 30 µM. In the case of `O=c1[nH]cnc2ccncc12` [Example 78], the IC50 was in the range of 15 to 30 µM.

`CC(=O)c1cccc2cnccc12` [Example 79] yielded an IC50 of 15 to 30 µM. Take `O=c1[nH]cc([N+](=O)[O-])c2ccncc12` [Example 80]: the IC50 was > 30 µM.

Take `Clc1ncc(Br)c2ccncc12` [Example 81]: the IC50 is > 30 µM. The same measure, in the same setting: as for `CC(C)(O)c1cccc2cnccc12` [Example 82], the figure is > 30 µM; as for `O=c1[nH]cc(Br)c2cc[n+]([O-])cc12` [Example 83], > 30 µM.

In the case of `Nc1nccc2c(C3CC3)cccc12` [Example 84], the IC50 was > 30 µM.

`C#Cc1cccc2cnccc12` [Example 85]: the IC50 is < 5 µM.
